For the data set, the target named is HSD17B13. To be noted: ASO, HepaRG.

Target mRNA inhibition data for 86 sequences are collected here from the OligoGym collection.

Several values for one entry are separate records, joined by “and”; a condition that tells them apart may be missing. Identical values can stand only once. After the bases stand the sugars from the 5' end (letter, count) and the backbone: PS all phosphorothioate, else s phosphorothioate and o phosphodiester by linkage. Methylation of C is not given here. e = 2'-O-(2-methoxyethyl) (MOE); k = constrained ethyl (cEt); d = 2'-deoxy (DNA); m = 2'-O-methyl

Take “TACCTCTAAGTTAGCC (sugars k3 d9 k3 e1, PS)”: the target mRNA inhibition (1 µM) came out at 30%.
The same measure, in the same setting: the same measure for “TACCTCTAAGTTAGCC (sugars kkdddddddddkekek, PS)”: 20%; for TACGATGGAACAAAAA (sugars k3 d10 k3, PS): 20%.
As to “TACTTGAACAGTCTTA (sugars kkdddddddddkekek, PS)”, the target mRNA inhibition (1 µM) was 60%.
Still for that read-out and setting: the same measure for TAGAACACTTGCCTCA (sugars k3 d10 k3, PS): 31%.
TAGAACTCCCAACCCA (sugars k3 d10 k3, PS) had a target mRNA inhibition (1 µM) of 44%.
Take TAGAACTGTGTTGCTT (sugars k3 d10 k3, PS): the target mRNA inhibition (0.02 µM) is 14%; the target mRNA inhibition (0.078 µM) is 27%; the target mRNA inhibition (0.313 µM) came out at 57%; the target mRNA inhibition (1 µM) was determined as 78%; the target mRNA inhibition (1.25 µM) was 78%; the target mRNA inhibition (5 µM) was 90%.
Take “TAGAATAGTCTTCAGC (sugars kkdddddddddkekek, PS)”: the target mRNA inhibition (1 µM) is 50%.
As to “TAGAGTCGGTCACCTT (sugars k3 d9 k3 e1, PS)”, the target mRNA inhibition (1 µM) turned out to be 59%.
On to “TAGCTGTGCACTCATT (sugars kkdddddddddkekek, PS)”, for which the target mRNA inhibition (1 µM) amounted to 53%.
The same measure, in the same setting: the same measure for “TAGCTTTTGTCCACCT (sugars k3 d9 k3 e1, PS)”: 65%.
The same measure, in the same setting: the figure for TAGGAACATTCCCTCT (sugars k3 d10 k3, PS) is 24%.
With TAGGCAGTAAAGTGCT (sugars k3 d10 k3, PS), the target mRNA inhibition (1 µM) was 48%.
In the case of TAGGGAGGTAGCTTTT (sugars k3 d10 k3, PS), the target mRNA inhibition (1 µM) was determined as 46%.
Still for that read-out and setting: the same measure for TAGTAATCACAAGTAA (sugars k3 d10 k3, PS): 30%; for TAGTCCATGCAAAAGC (sugars k3 d10 k3, PS): 66%.
Same read-out and setting: the same measure for TAGTGAACATACATTG (sugars k3 d10 k3, PS): 23%.
Same read-out and setting: the same measure for “TAGTGCCAAACCAATG (sugars k3 d1 m1 d8 k3, PS)”: 55%.
Regarding “TAGTGGACTTCATTAG (sugars k3 d1 m1 d8 k3, PS)”, the target mRNA inhibition (1 µM) was determined as 34%.
TAGTGGACTTCATTAG (sugars k3 d10 k3, PS) displayed a target mRNA inhibition (1 µM) of 52%.
Same read-out and setting: the same measure for “TAGTGTAAGCTGAGAG (sugars k3 d1 m1 d8 k3, PS)”: 31%; for TAGTTAGAATAGTCTT (sugars k3 d10 k3, PS): 23%; for TAGTTATCTTCTCACT (sugars k3 d10 k3, PS): 52%.
For the setting “1 µM”, TATAACTACAAGAGGT (sugars k3 d10 k3, PS) returned a target mRNA inhibition of 46%.
The same measure, in the same setting: the figure for TATACGATGGAACAAA (sugars k3 d10 k3, PS) is 4%; for TATAGGTAGCTAATGT (sugars k3 d10 k3, PS) it is 31%; for TATAGTAATCACAAGT (sugars k3 d10 k3, PS) it is 53%.
Still for that read-out and setting: the figure for “TATAGTTATCTTCTCA (sugars k3 d1 m1 d8 k3, PS)” is 33%; for TATAGTTATCTTCTCA (sugars k3 d10 k3, PS) it is 46%; for TATATACTAGGATTAG (sugars k3 d10 k3, PS) it is 10%.
Still for that read-out and setting: the figure for TATATGTTGATGTTAC (sugars k3 d10 k3, PS) is 34%.
Consider TATCAACCTGCACACC (sugars k3 d10 k3, PS), for which the target mRNA inhibition (1 µM) was 62%.
Still for that read-out and setting: the figure for TATCTATTATGCACTC (sugars k3 d10 k3, PS) is 48%; for TATCTTAAGAGAAGGT (sugars k3 d10 k3, PS) it is 29%; for “TATGAAGTTAGTATAG (sugars k3 d9 k3 e1, PS)” it is 13%.
Sequence “TATGAAGTTAGTATAG (sugars kkdddddddddkekek, PS)” had a target mRNA inhibition (1 µM) of 47%.
Take TATGACAACTGGAGGT (sugars k3 d10 k3, PS): the target mRNA inhibition (1 µM) amounted to 14%.
In the case of “TATGTAATAGCCAGTA (sugars kkdddddddddkekek, PS)”, the target mRNA inhibition (0.02 µM) came to 9%; the target mRNA inhibition (0.078 µM) was determined as 33%; the target mRNA inhibition (0.313 µM) stood at 58%; the target mRNA inhibition (1 µM) was found to be 78%; the target mRNA inhibition (1.25 µM) amounted to 67%; the target mRNA inhibition (5 µM) turned out to be 85%.
With TATTAAGTACTGTGAG (sugars k3 d10 k3, PS), the target mRNA inhibition (1 µM) was determined as 0%.
Same read-out and setting: the figure for “TATTAGAAGTCAGCCC (sugars k3 d9 k3 e1, PS)” is 32%.
As to TATTATGTGATTGAGT (sugars k3 d10 k3, PS), the target mRNA inhibition runs as follows: (0.02 µM) 60% and 50%; (0.078 µM) 69%; (0.313 µM) 68%; (1 µM) 86%; (1.25 µM) 76%.
For “TATTCTGTGGCATGGC (sugars k3 d1 m1 d8 k3, PS)”, the target mRNA inhibition (1 µM) worked out at 55%.
The same measure, in the same setting: the figure for “TATTCTGTGGCATGGC (sugars kkdddddddddkekek, PS)” is 57%; for TATTCTTATGTCATCC (sugars k3 d10 k3, PS) it is 75%.
Same read-out and setting: the figure for “TATTGGTAAGTATTCC (sugars k3 d1 m1 d8 k3, PS)” is 41%; for TCAAAACCTTTGTTGC (sugars k3 d10 k3, PS) it is 6%.
On the same count and under the same terms, the same measure for TCAAGTAATAAAGTCC (sugars k3 d10 k3, PS): 49%; for TCACAATCTAGCAACC (sugars k3 d10 k3, PS): 4%; for TCACCACGATTGTTAC (sugars k3 d10 k3, PS): 34%.
Turning to “TCACCTTTCATAATGT (sugars k3 d1 m1 d8 k3, PS)”, the target mRNA inhibition (1 µM) was found to be 47%.
Still for that read-out and setting: the figure for TCACCTTTCATAATGT (sugars k3 d10 k3, PS) is 63%.
Same read-out and setting: the same measure for TCACTATATTGCATTC (sugars k3 d10 k3, PS): 35%; for TCAGAACAGTTCAACT (sugars k3 d10 k3, PS): 30%; for TCAGACTTCTTACGAC (sugars k3 d10 k3, PS): 36%.
The same measure, in the same setting: the figure for TCAGTAGAGAGCATAA (sugars k3 d10 k3, PS) is 52%.
Turning to TCAGTATCCCCTCAAA (sugars k3 d10 k3, PS), the target mRNA inhibition (1 µM) was found to be 64%.
Sequence TCAGTCCTTGTGTAGT (sugars k3 d10 k3, PS) returned a target mRNA inhibition (1 µM) of 72%.
Consider TCATAAAGGTGGGATA (sugars k3 d10 k3, PS), for which the target mRNA inhibition (1 µM) is 40%.
The same measure, in the same setting: the same measure for TCATACCACATACCCA (sugars k3 d10 k3, PS): 41%; for TCATAGCTCACTTAGT (sugars k3 d10 k3, PS): 0%; for TCATAGTTCAAATTGG (sugars k3 d10 k3, PS): 47%.
The same measure, in the same setting: the figure for TCATAGTTTATATGGA (sugars k3 d10 k3, PS) is 44%.
Still for that read-out and setting: the figure for TCATCGATGGAAGAAG (sugars k3 d10 k3, PS) is 24%.
In turn, TCATTTAGAATACGCT (sugars k3 d10 k3, PS) yielded a target mRNA inhibition (1 µM) of 20%.
As to TCATTTAGCAGCTTGG (sugars k3 d10 k3, PS), the target mRNA inhibition was found to be 12% (0.02 µM); 31% (0.078 µM); 43% (0.313 µM); 79% (1 µM); 87% (1.25 µM); 84% (5 µM).
TCATTTTTAATACGAC (sugars k3 d10 k3, PS): the target mRNA inhibition (1 µM) came out at 48%.
The same measure, in the same setting: the figure for TCCAAATCAGGTAGTT (sugars k3 d10 k3, PS) is 22%; for TCCAAGTAGGAGTAGA (sugars k3 d10 k3, PS) it is 24%.
Same read-out and setting: the same measure for TCCAATACAGGCCATA (sugars k3 d10 k3, PS): 62%; for TCCAGAATAGAGTTGC (sugars k3 d10 k3, PS): 46%.
For the setting “1 µM”, TCCATAATAATAGCTC (sugars k3 d10 k3, PS) registered a target mRNA inhibition of 69%.
Consider TCCCAACCAAACTTCC (sugars k3 d10 k3, PS), for which the target mRNA inhibition (0.02 µM) amounted to 0%; the target mRNA inhibition (0.078 µM) stood at 0%; the target mRNA inhibition (0.313 µM) stood at 7%; the target mRNA inhibition (1 µM) is 82%; the target mRNA inhibition (1.25 µM) came out at 25%; the target mRNA inhibition (5 µM) was 63% and 50%.
On to TCCCACAAAACTAACC (sugars k3 d10 k3, PS), for which, for the setting “1 µM”, the target mRNA inhibition stood at 24%.
TCCCACAGAACCAATA (sugars k3 d10 k3, PS) showed a target mRNA inhibition (1 µM) of 24%.
Same read-out and setting: the same measure for TCCGAAAAAAGTGGAG (sugars k3 d10 k3, PS): 12%; for TCCTACAGTGCTTAGT (sugars k3 d10 k3, PS): 44%.
Still for that read-out and setting: the figure for TCCTCCACACCGCGCT (sugars k3 d10 k3, PS) is 20%; for “TCCTGTGTTAGCTTTA (sugars k3 d1 m1 d8 k3, PS)” it is 72%; for TCCTGTGTTAGCTTTA (sugars k3 d10 k3, PS) it is 56%.
The same measure, in the same setting: the figure for TCCTTTGTATTTCGCT (sugars k3 d10 k3, PS) is 68%; for “TCGGTCACCTTTCATA (sugars k3 d9 k3 e1, PS)” it is 72%.
As for TCGGTCACCTTTCATA (sugars k3 d10 k3, PS), the target mRNA inhibition (1 µM) stood at 64%.
Turning to “TCGGTCACCTTTCATA (sugars kkdddddddddkekek, PS)”, the target mRNA inhibition (1 µM) turned out to be 63%.
Regarding “TCGGUCACCTTTCATA (sugars k3 d1 m1 d8 k3, PS)”, the target mRNA inhibition (1 µM) was found to be 21%.
The same measure, in the same setting: the same measure for “TCTAAACATCTCTGGG (sugars k3 d9 k3 e1, PS)”: 42%; for TCTAAAGTGCTGGTTG (sugars k3 d10 k3, PS): 34%.
